Experimental data taken from BindingDB's records for doi:10.1016/j.bmc.2008.04.010 (Astellas Pharma, 2008).

Molecular target: T1, Glycogen phosphorylase, liver form (Homo sapiens, UniProt P06737)
T1 sequence (P06737 whole entry): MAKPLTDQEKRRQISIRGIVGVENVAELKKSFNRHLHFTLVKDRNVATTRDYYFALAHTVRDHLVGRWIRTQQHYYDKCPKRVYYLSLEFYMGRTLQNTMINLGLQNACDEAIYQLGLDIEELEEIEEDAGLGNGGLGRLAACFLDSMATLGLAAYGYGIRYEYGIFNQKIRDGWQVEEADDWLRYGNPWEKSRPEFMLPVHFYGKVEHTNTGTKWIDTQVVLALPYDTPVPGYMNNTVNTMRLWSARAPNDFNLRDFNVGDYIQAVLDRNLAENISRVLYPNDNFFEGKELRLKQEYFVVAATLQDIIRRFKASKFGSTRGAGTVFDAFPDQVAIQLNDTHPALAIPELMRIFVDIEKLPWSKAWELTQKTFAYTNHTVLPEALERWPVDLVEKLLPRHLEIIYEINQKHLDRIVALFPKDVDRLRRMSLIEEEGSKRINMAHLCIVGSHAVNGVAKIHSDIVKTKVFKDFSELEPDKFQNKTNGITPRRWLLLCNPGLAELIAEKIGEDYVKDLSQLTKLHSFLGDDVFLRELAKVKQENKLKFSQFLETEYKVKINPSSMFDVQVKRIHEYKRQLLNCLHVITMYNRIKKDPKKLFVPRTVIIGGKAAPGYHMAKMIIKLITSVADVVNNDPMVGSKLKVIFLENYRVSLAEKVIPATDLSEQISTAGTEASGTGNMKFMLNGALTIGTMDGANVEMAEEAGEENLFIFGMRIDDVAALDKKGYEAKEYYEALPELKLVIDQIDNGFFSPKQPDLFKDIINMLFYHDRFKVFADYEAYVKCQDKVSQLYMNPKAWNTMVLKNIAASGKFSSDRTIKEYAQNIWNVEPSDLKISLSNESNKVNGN
Assay: Glycogen Phosphorylase Activity Assay
Conditions: pH 6.8; 22 °C
Experimental: The activity of recombinant human liver GPa in the forward direction was measured by monitoring the production of NADPH. Enzyme activity was assayed at pH 6.8 in phosphate buffer containing beta-NADP, alpha -glucose 1,6-bisphosphate, glucose-6-phophate dehydrogenase, phosphoglucomutase, glycogen, and glucose. […] The reaction was started by adding hLGPa solution (beta-glycerophosphate and cystein, pH 6.8). The reaction took place at room temperature, and the conversion of oxidized beta-NADP to reduced beta-NADPH was measured at 340 nm for 2 h. The hLGPa inhibition IC50 values were calculated using the logistic regression method and SAS software.

Row | IC50 [nM] | SMILES
1 | 420 | O=C(Nc1ccc(C(O)CO)cc1F)c1cc2cc(Cl)ccc2[nH]1 (stereo not drawn) [5-chloroindolecarboxamide, 9b]
2 | 1100 | O=C(Nc1ccc(C(O)CO)cc1Cl)c1cc2cc(Cl)ccc2[nH]1 (stereo not drawn) [5-chloroindolecarboxamide, 9c]
3 | 340 | O=C(Nc1ccc(C(O)CO)c(F)c1)c1cc2cc(Cl)ccc2[nH]1 (stereo not drawn) [5-chloroindolecarboxamide, 9g]
